Each structure is given as a SMILES string.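 Cultured in 96-well plates, cells were exposed to test compound for 48 hours across five concentrations. Here, GI50 denotes the concentration required for 50% inhibition of growth. TGI is the concentration that stops growth completely.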 Where only a bound is given, the exact number is not on record here.

Test systems include K-562 leukemia; SNB-75 CNS; A498 renal; OVCAR-4 ovarian; SNB-19 CNS; DU-145 prostate; SF-268 CNS; SR leukemia; M19-MEL melanoma; HOP-18 NSCLC.
What all share (test): growth of human tumour cells (NCI), 48 h

As to `COc1nc(N)nc2c1ncn2[C@@H]1O[C@H](CO)[C@@H](O)[C@@H]1O`, the GI50 with K-562 leukemia, in the assay on SNB-75 CNS, in the assay with A498 renal, in the assay on OVCAR-4 ovarian, with SNB-19 CNS and with DU-145 prostate was more than 100 µM each time. Besides, the GI50 with SF-268 CNS and in the assay with SR leukemia was more than 100 µM each time. In addition, the TGI in the assay on K-562 leukemia, in the assay with SNB-75 CNS, in the assay on A498 renal, in the assay on OVCAR-4 ovarian, with SNB-19 CNS and in the assay on DU-145 prostate was more than 100 µM throughout. Besides, the TGI with SF-268 CNS and with SR leukemia was more than 100 µM each time.

Regarding `CCCCCNC(=O)c1c(O)[nH]c(=S)[nH]c1=O`, the TGI with M19-MEL melanoma, with K-562 leukemia, with SNB-75 CNS, in the assay on A498 renal, with OVCAR-4 ovarian and in the assay on SNB-19 CNS was more than 100 µM throughout. Also, the TGI with SF-268 CNS and in the assay on SR leukemia was more than 100 µM each time.

Take `O=C(NCCNc1nccc(-c2c(-c3ccc(F)cc3)nc3sccn23)n1)c1ccccc1`: the GI50 in the assay with K-562 leukemia is 7.72 µM; with SNB-75 CNS it was 7.27 µM; in the assay with A498 renal it was 15.1 µM; with OVCAR-4 ovarian, 15.1 µM; in the assay with SNB-19 CNS, 11.9 µM; in the assay on DU-145 prostate, 12.7 µM. The GI50 with SF-268 CNS was 12.4 µM; with SR leukemia, 16.7 µM. Moreover, the TGI in the assay on K-562 leukemia was more than 100 µM; with SNB-75 CNS, 62.5 µM; in the assay on A498 renal, more than 100 µM; with OVCAR-4 ovarian, 71.7 µM; in the assay with SNB-19 CNS, more than 100 µM; with DU-145 prostate, more than 100 µM. Moreover, the values for the TGI in the assay with SF-268 CNS and in the assay on SR leukemia were more than 100 µM and 47.3 µM, respectively.

For the compound `O=C1CCC(N2Cc3c(C#CCCCNC(=O)c4cc5c(o4)C(=O)c4ccccc4C5=O)cccc3C2=O)C(=O)N1` (configuration not stated), the GI50 in the assay on K-562 leukemia is 3.11 µM; in the assay with SNB-75 CNS, 2.09 µM; in the assay with A498 renal, 14.2 µM; with OVCAR-4 ovarian, 1.88 µM; in the assay on SNB-19 CNS it was 2.65 µM; with DU-145 prostate, 1.82 µM. Moreover, the figures for the GI50 in the assay with SF-268 CNS and with SR leukemia were 3.06 µM and 3.15 µM, respectively. In addition, the TGI came to 16.6 µM in the assay on K-562 leukemia; 4.72 µM in the assay on SNB-75 CNS; 27.5 µM with A498 renal; 4.73 µM with OVCAR-4 ovarian; 8.35 µM in the assay with SNB-19 CNS; 3.28 µM in the assay with DU-145 prostate. The TGI came to 11.2 µM with SF-268 CNS and 14.5 µM in the assay on SR leukemia.

With `O=C(Nc1ccc(OCc2nnc(-c3ccccc3)o2)c(F)c1)Nc1ccc(Cl)c(C(F)(F)F)c1`, the GI50 with K-562 leukemia was 2.07 µM; with SNB-75 CNS it was 1.64 µM; in the assay with A498 renal, 1.61 µM; in the assay on OVCAR-4 ovarian, 2.49 µM; in the assay with SNB-19 CNS it was 2.35 µM; with DU-145 prostate it was 1.8 µM. Further, the GI50 in the assay on SF-268 CNS was 3.52 µM; in the assay with SR leukemia, 1.37 µM. The TGI came out at 8.79 µM in the assay with K-562 leukemia; 5.08 µM in the assay with SNB-75 CNS; 4.25 µM in the assay with A498 renal; 8.52 µM in the assay with OVCAR-4 ovarian; 16.7 µM in the assay with SNB-19 CNS; 3.53 µM in the assay with DU-145 prostate. Also, the results for the TGI in the assay with SF-268 CNS and in the assay with SR leukemia were 19.2 µM and 4.31 µM, respectively.

On to `COc1ccc(-c2nc(N3CCOCC3)c3sc(CN(C)c4ncc(C(=O)NO)cn4)cc3n2)cn1`, for which the GI50 with K-562 leukemia is less than 0.01 µM; in the assay on SNB-75 CNS, less than 0.01 µM; with A498 renal it was less than 0.0155 µM; in the assay on OVCAR-4 ovarian, 0.0147 µM; with SNB-19 CNS it was less than 0.01 µM; in the assay on DU-145 prostate, less than 0.01 µM. The GI50 in the assay with SF-268 CNS was 0.0178 µM; with SR leukemia, less than 0.01 µM. The TGI was more than 100 µM in the assay on K-562 leukemia; 0.152 µM in the assay on SNB-75 CNS; 0.0544 µM in the assay on A498 renal; 1.82 µM with OVCAR-4 ovarian; 0.0907 µM in the assay on SNB-19 CNS; 0.141 µM in the assay on DU-145 prostate. In addition, the results for the TGI with SF-268 CNS and with SR leukemia were 0.204 µM and 0.234 µM, respectively.

For `C/C(=C\CCc1ccsc1)CC/C=C(\C)CCCN1CCC(CO)CC1`, the GI50 was 1.28 µM with K-562 leukemia; 1.69 µM with SNB-75 CNS; 1.24 µM in the assay on A498 renal; 2.3 µM in the assay with OVCAR-4 ovarian; 2.63 µM in the assay with SNB-19 CNS; 4.69 µM in the assay with DU-145 prostate. The GI50 is 5.06 µM in the assay with SF-268 CNS and 1.81 µM in the assay on SR leukemia. In addition, the TGI was 3.41 µM with K-562 leukemia; 4.56 µM in the assay with SNB-75 CNS; 3.5 µM in the assay with A498 renal; 9.5 µM in the assay with OVCAR-4 ovarian; 9.28 µM with SNB-19 CNS; 16.1 µM in the assay on DU-145 prostate. Further, the TGI with SF-268 CNS worked out at 19.4 µM; in the assay on SR leukemia, 4.4 µM.

As to `S=C(c1ccc2c(c1)OCO2)N1CCN(c2cccc(Cl)c2)CC1`, the GI50 with K-562 leukemia is 0.318 µM; in the assay on SNB-75 CNS it was 0.572 µM; in the assay with A498 renal, 0.424 µM; with OVCAR-4 ovarian it was 7.45 µM; in the assay with SNB-19 CNS it was 3.13 µM; with DU-145 prostate it was 2.16 µM. In addition, the GI50 with SF-268 CNS was 4.65 µM; in the assay with SR leukemia, 0.382 µM. The TGI in the assay with K-562 leukemia is more than 41.8 µM; in the assay on SNB-75 CNS it was more than 27.4 µM; in the assay on A498 renal it was 12.8 µM; in the assay on OVCAR-4 ovarian, more than 100 µM; with SNB-19 CNS, more than 100 µM; in the assay with DU-145 prostate, more than 55.1 µM. The TGI with SF-268 CNS was more than 100 µM.

As to `CC1=NC(C(C)C)C(=O)O1` (configuration not stated), the TGI with M19-MEL melanoma, with K-562 leukemia, in the assay on HOP-18 NSCLC, in the assay on SNB-75 CNS, in the assay with A498 renal and with OVCAR-4 ovarian was more than 100 µM in each case. Besides, the TGI in the assay on SNB-19 CNS and in the assay with SF-268 CNS was more than 100 µM in each case.

The record behind these values is PubChem BioAssay (NCI).
